What was measured:
rabbit eye = assay: IOP recovery rate assay (hypertonic sodium chloride infusion, topical drug); format: in vivo; settings: 0.6% solution
Description: The "IOP recovery rate assay" as reported by Vareilles and Lotti (Ophthalmic Res., 13, 72-79, 1981) is used.
IOP was measured at 15, 25, 35, 45, 60, 75, 90 and 120 minutes with an applanation pneumatonometer (Digilab Model D). Fifty uL of a 0.6% solution of N,N'-dimethyl-2-phenylethylamine containing a pH 7.4 phosphate buffer was administered topically to the right eye 60 minutes before the start of the sodium chloride infusion. Control animals were given vehicle without drug.
The hypertonic sodium chloride solution causes a temporary decline in IOP which returns to normal IOP in about 90 minutes if no drug is administered. IOP gradually returns to normal at a constant rate buy more slowly if the in vivo secretion rate of aqueous humor is reduced due to the presence of drug. The return to normal IOP is measured from the positive linear slope which is a measure of the constant rate of return to normal IOP and begins at about 30-45 minutes after starting the NaCl infusion. A comparison of the slope with and without the addition of N=2, R&R'=CH3 to the rabbit eye is expressed as "% reduction".

Serotonin 2 Receptor = Serotonin 2 Receptor (Homo sapiens, UniProt P28223); assay: NovaScreen receptor binding, Serotonin 2 Receptor; settings: for inhibition at 10 µM: 10^-5 M (10 μM); for inhibition at 0.1 µM: 10^-7 M (100 nM); for inhibition at 0.001 µM: 10^-9 M (1 nM)
Description: (§1) A number of compounds were sent to NovaScreen® (5200 Freeport Centre, Baltimore, Md. 21224) to determine the compounds' receptor selectivity. […] Compounds which show inhibition of 50% or greater at an assay concentration of 10 μM to 1 nM are considered active or very potent, respectively. In the table below a number of compounds show significant results for two or more of the significant receptors.

eye = settings: previously disclosed by applicants; 0.2% to about 0.6% w/v preferred; cited from earlier work
Alpha 2 Receptor = assay: NovaScreen receptor binding, Alpha 2 Receptor
Description: as §1

Serotonin 1 Receptor = assay: NovaScreen receptor binding, Serotonin 1 Receptor
Description: as §1

Serotonin 2 Receptor, sequence (P28223 whole entry): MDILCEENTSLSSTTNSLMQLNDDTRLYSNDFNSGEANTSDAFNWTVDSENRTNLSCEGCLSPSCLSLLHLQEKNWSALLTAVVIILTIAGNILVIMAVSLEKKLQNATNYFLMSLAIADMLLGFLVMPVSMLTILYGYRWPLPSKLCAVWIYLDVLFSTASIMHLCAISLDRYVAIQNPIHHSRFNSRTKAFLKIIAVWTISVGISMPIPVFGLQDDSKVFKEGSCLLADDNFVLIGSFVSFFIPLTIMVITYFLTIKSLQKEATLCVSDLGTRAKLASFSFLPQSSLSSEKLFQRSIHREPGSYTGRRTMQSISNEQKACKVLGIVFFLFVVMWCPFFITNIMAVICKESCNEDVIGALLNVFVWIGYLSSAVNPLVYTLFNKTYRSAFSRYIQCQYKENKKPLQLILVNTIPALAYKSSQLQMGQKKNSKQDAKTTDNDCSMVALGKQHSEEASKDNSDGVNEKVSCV

Structure (SMILES) | average slope of return to normal IOP (rabbit eye; 50 uL topical to right eye 60 min before NaCl infusion, n = 12 rabbit eyes, ± standard deviation, vehicle only 0.109 ± 0.0268) | % Reduction of slope vs vehicle (rabbit eye; topical, n = 12 rabbit eyes) [%] | in vivo antiglaucoma activity (rabbit eye; topical, rabbit eye) | inhibition at 10 µM (Serotonin 2 Receptor) [%] | inhibition at 0.1 µM (Serotonin 2 Receptor) [%] | inhibition at 0.001 µM (Serotonin 2 Receptor) [%] | tear stimulation (eye) | % INHIBITION (Alpha 2 Receptor; 10^-5 M (10 μM)) [%] | % INHIBITION (Alpha 2 Receptor; 10^-7 M (100 nM)) [%] | % INHIBITION (Alpha 2 Receptor; 10^-9 M (1 nM)) [%] | % INHIBITION (Serotonin 1 Receptor; 10^-5 M (10 μM)) [%] | % INHIBITION (Serotonin 1 Receptor; 10^-7 M (100 nM)) [%] | % INHIBITION (Serotonin 1 Receptor; 10^-9 M (1 nM)) [%]
CN(C)CCc1ccccc1 [n = 2, R&R' = CH3, N,N-dimethyl-2-phenylethylamine] | 0.066 ± 0.027 | 38.5 | potent in vivo antiglaucoma drug | 46.9 | 10.7 | -2.1 | ophthalmically effective tear stimulant | 96.7 | 15.3 | 8.1 | 82.3 | 70.6 | 62.3
CCN(C)Cc1ccccc1 [n = 1, R = CH3, R' = C2 H5] |  |  |  |  |  |  |  | 53.0 | 4.7 | 2.2 | 17.2 | 6.2 | 5.7
CCN(CCc1ccccc1)C1CCCCC1.Cl [n = 2, R = C2 H5, R' = cyclohexyl, N-cyclohexyl-N-ethyl 2-phenylethylamine hydrochloride] |  |  |  | 48.9 | 4.7 | -11.2 |  |  |  |  | 12.2 | -4.0 | 2.6
CCCCCCN(C)CCc1ccccc1 [n = 2, R = CH3, R' = n-hexyl] |  |  |  | 92 | 9.6 | 2.3 |  | 95.7 | 6.7 | 1.6 | 55.0 | 30.0 | 10.3
CN(CCCc1ccccc1)C1CCCCC1 [n = 3, R = methyl, R' = cyclohexyl] |  |  |  | 82.1 | -8 | -15.4 |  | 81.0 | 9.3 | 3.3 | 5.7 | -10.2 | -6.3

Reference: US5322859A, “Antiglaucoma drug composition and method” (University of Iowa Research Foundation, priority 1993, dated 1994)
